Data on one molecule can be found in patent publication US20090030086A1, “ANTIMICROBIAL AGENTS” (priority 2005, published 2009).

Converted amounts (≈) assume the structure as drawn.

For assay [1], the system named is S. aureus ATCC 29213. As to the kind of experiment: Disc diffusion assay (DDA). The note with it: Staphylococcus aureus, ATCC29213; S. aureus ATCC 29213; unsupplemented agar; 200 μg per disc (thymoquinone 50 μg, 2,6-dimethoxy-p-benzoquinone 100 μg); read-out: DDA (diameter of zone of inhibition). It is filed as cell-based, Staphylococcus aureus. An outline of the steps: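 Paper discs loaded with test compound (usually 200 μg/disc), solvent evaporated ≥30 min, placed on inoculated Mueller-Hinton agar pH 7.2. Incubated aerobically at 37 °C for 24 h; inhibition zone diameter measured and area calculated as π(D/2)^2.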
A general note: In agar diffusion tests the substance spreads into inoculated agar from a disc or well.

Assay [2] concerns P. acnes NCTC 737. Briefly: Disc diffusion assay (DDA). It is filed as cell-based, Propionibacterium acnes. Particulars: Cutibacterium acnes, NCTC737; P. acnes NCTC 737; unsupplemented agar; 200 μg per disc (2,6-dimethoxy-p-benzoquinone 100 μg); read-out: DDA (diameter of zone of inhibition).
Assay [3] relates to P. granulosum PPR-006. Briefly: MIC assay. It is filed as cell-based. On the procedure:
The Propionibacterium spp organisms were cultured and maintained on Wilkins-Chalgren Anaerobe Medium (agar and broth) at pH 6.0; cultures were incubated anaerobically at 37° C. for 72 hours.
This is a standard international method for quantitatively assessing the antimicrobial activity of a compound in a liquid medium. The method used a 96-well microtitre plate, capable of holding about 200 μl of liquid per well. […] The culture media were as described above for the relevant test organisms.
The wells were inoculated with a liquid suspension of freshly grown micro-organism and incubated under the conditions described above. After incubation, the microtitre plate was examined visually (with the aid of a light box) for cloudiness in each well, which would indicate microbial growth. The MIC value was recorded as the lowest concentration of test compound required to inhibit microbial growth, i.e., the lowest concentration for which the liquid in the well remained clear.
The assays were conducted in duplicate and included both negative (culture medium only) and positive (culture medium, diluting solvent and inoculum) controls.
The activity of TBHQ was tested against other Propionibacterium spp strains, including some with known antibiotic resistance. MIC, MBC and DDA assays were carried out as described above for each of the strains.

In assay [4] the test system is H. influenzae ATCC 49247. As to the kind of experiment: MIC assay. Particulars: Haemophilus influenzae, ATCC49247. It is filed as cell-based. From the text:
5. Haemophilus influenzae ATCC 49247—a member of the genus Haemophilus, these organisms are Gram-negative bacilli which grow under aerobic or anaerobic conditions but require media with special supplements for laboratory culture. Strains of H. influenzae may be capsulated or non-capsulated. The capsulate strains are divided into serotypes, (designated b,c,d,e,f), on the basis of capsular antigens. The serotype H. influenzae type b is an important cause of invasive infections in humans, particularly in young children. The non-capsulate strains are common commensals in the upper respiratory tract, although there are also some healthy carriers of the type b strain. In the context of skin and topical treatments, H. influenzae can be a cause of cellulitis and otitis media (middle ear infection), again particularly in young children. […]
(§1) This is a standard international method for quantitatively assessing the antimicrobial activity of a compound in a liquid medium. […]
(§2) The wells were inoculated with a liquid suspension of freshly grown micro-organism and incubated under the conditions described above. […] The MIC value was recorded as the lowest concentration of test compound required to inhibit microbial growth, i.e., the lowest concentration for which the liquid in the well remained clear. […]

The subject of assay [5] is E. faecalis ATCC 29212. As to the kind of experiment: MBC assay. It is filed as cell-based, Enterococcus faecalis. As to the method:
The staphylococci and enterococci were cultured and maintained on Mueller-Hinton Medium (agar and broth) at pH 7.2; they were incubated aerobically at 37° C. for 24 hours.
(§3) This assay, normally carried out after an MIC assay, determines the minimum concentration of a compound that is lethal to the micro-organism being tested.
(§4) These samples were then individually sub-cultured on non-selective agar medium, under the incubation conditions described above. Following incubation they were examined visually for bacterial growth.
(§5) The activity of TBHQ against three other bacterial strains was investigated using MIC, MBC and DDA assays as described above. For the DDA assays, 200 μg of TBHQ was loaded onto each disc, using ethanol as the solvent.

Assay [6] deals with S. pyogenes ATCC 12344. As to the kind of experiment: MIC assay. The format is cell-based. The note with it: Streptococcus pyogenes, ATCC12344.
Source text: 3. Streptococcus pyogenes ATCC 12344—this is a Gram-positive […] bacterium; it is a member of the group A β-haemolytic streptococci which are occasional upper respiratory tract commensals in humans (10% of children, commensal carriage uncommon in adults, its main occurrence is as the agent of tonsillitis). It is clinically significant in the context of skin infections, being a causative agent of cellulitis, necrotising fasciitis, impetigo, erysipelas, wound infections and scarlet fever. Penicillin and erythromycin are the standard treatments for infections involving S. pyogenes. […] S. pyogenes is also a major cause of upper respiratory tract infections. […]
as §1, §2

The test system of assay [7] is S. pyogenes ATCC 12344. As to the kind of experiment: MBC assay. The format is cell-based, Streptococcus pyogenes. As to the method:
(§6) The S. pyogenes strain was cultured and maintained on Mueller-Hinton agar with 5% v/v defibrinated horse blood, and grown in Mueller-Hinton broth supplemented with 5% lysed horse blood (lysed horse blood was prepared as described in the NCCLS M7-A6 Vol. 23 No. 2); cultures were incubated aerobically at 37° C. for 24 hours.
as §3, §4, §5

Assay [8] has as its system S. pyogenes ATCC 12344. As to the kind of experiment: Disc diffusion assay (DDA). It is filed as cell-based, Streptococcus pyogenes. Particulars: 200 μg per disc. As to the method: as §6
A sterile paper disc was impregnated with a sample of the test compound and a minimum of 30 minutes allowed for the solvents to evaporate as far as possible. The disc was then placed on an agar plate onto which the test micro-organism had been inoculated. The plate was then incubated under the conditions described above, following which it was examined visually for signs of bacterial growth. If the test compound had antimicrobial activity, a circular zone of no growth would be obtained around the disc. The diameter of this zone of “inhibition” was measured using a ProtoCOL™ automated zone sizer (Synbiosis, Cambridge, UK). In general, a greater diameter and/or area of the zone of inhibition indicates a greater antimicrobial activity in the relevant test compound, although other factors such as test compound mobility through the agar gel may also influence the result.
The area of the zone of inhibition was calculated from the measured zone diameter (D) using the formula π(D/2)^2. […]

The zone of inhibition is the size of the clear area around the sample on an inoculated plate. The term MBC denotes the lowest tested concentration that kills the bacteria rather than only halting them. `CC(C)(C)c1cc(O)ccc1O` [TBHQ, 2-t-butyl hydroquinone]: the zone of inhibition at 200 µg/disc is 41.8 mm in assay [1] and 9.95 mm in assay [2]. Also, the figures for the MIC in assay [3], in assay [4] and in assay [6] were 7.8 µg/mL (≈ 46.9 µM), 15.6 µg/mL (≈ 93.9 µM) and 62.5 to 125 µg/mL (≈ 376 to 752 µM), respectively. In addition, the values for the MIC/MBC ratio in assay [5] and in assay [7] were 0.5 and 1, respectively. For the same molecule, the MBC in assay [7] (Streptococcus pyogenes, ATCC12344) fell in the range of 62.5 to 125 µg/mL (≈ 376 to 752 µM). The molecule further showed a DDA in assay [8] of 50.67 mm.
